Measurements published in patent publication US20190151315A1, “Drug For Preventing Or Treating Lactic Acidosis” (KEIO UNIVERSITY, priority 2016, published 2019).

Key:
Assay type in all cases: in vivo, mouse (C57BL/6)
[1] = test system: MALA-complicated CKD model mice; assay: Survival analysis in MALA-complicated chronic kidney disease (CKD) model mice, Compound B (Test Example 3); conditions: for survival rate as compared to vehicle alone: 30 mg/kg oral
Description: (§1) All mice used in Examples were 7- to 13-week-old wild-type C57BL/6 male mice obtained from CLEA Japan, Inc. The mice were fed ad libitum on a 12-hour light/12-hour dark cycle in a specific pathogen-free facility.
(§2) In statistical analysis in Examples, power calculation for determining a sample size was not performed. Mice that died of lactic acidosis before treatment with a vehicle or Compound A were excluded from mice to be analyzed. For a comparison of normally distributed data between groups, analysis was performed using unpaired Student's t-test. A difference in survival rate was analyzed by log-rank (Mantel-Cox) test through use of GraphPad Prism software.
(§3) 7-Week-old wild-type C57BL/6 male mice were fed ad libitum with a standard or 0.2% adenine feed for 6 weeks. The population fed with the 0.2% adenine feed was used as CKD model mice.
(§4) Further, the CKD model mice were administered with 0.5 mg/g body weight of metformin on day 1 to produce a MALA-complicated CKD mouse model. After 4 hours from the metformin administration, a whole blood sample (5 μl) was collected from the tail vein, and a blood lactate level was measured using Lactate Pro Test Meter and Lactate Pro Test Strip (Cycle Classic Imports). […] Kaplan-Meier survival analysis was performed for those mice.

MALA model mice = assay: Survival analysis in metformin-associated lactic acidosis (MALA) model mice (Test Example 1); conditions: for survival rate as compared to vehicle alone: 30 mg/kg oral
Description: as §1, §2
In the morning and evening of day 1, and the morning of day 2, 0.25 mg/g body weight of metformin dissolved in distilled water was orally administered to 8-week-old wild-type C57BL/6 male mice to produce MALA model mice. Immediately after the metformin administration to the model mice on day 2, a vehicle (0.5% methyl cellulose; 64625; Sigma-Aldrich) or 30 mg/kg body weight of Compound A (produced in Example 1) was orally administered. After 4 hours from the oral administration, the model mice were administered with 0.4 mg/g body weight of lactic acid dissolved in 0.9% NaCl by intraperitoneal injection. Kaplan-Meier survival analysis was performed for those mice.

[2] = test system: MALA-complicated CKD model mice; assay: Survival analysis in MALA-complicated chronic kidney disease (CKD) model mice, Compound A (Test Example 2); conditions: for survival rate as compared to vehicle alone: 10 mg/kg oral
Description: as §1, §2, §3, §4

In the case of Cc1nc(CC2CCN(c3ccc(-c4ccc(C[C@H](C)O)cc4)cc3)CC2)nc(C(=O)NCC(=O)O)c1O [Compound B, [({5-hydroxy-2-[(1-{4′-[(2S)-2-hydroxypropyl]biphenyl-4-yl}piperidin-4-yl)methyl]-6-methylpyrimidin-4-yl}carbonyl)amino]acetic acid], the “survival rate as compared to vehicle alone (Kaplan-Meier, FIG. 3)” value ([1]; 30 mg/kg body weight oral, single, mice with blood lactate more than 8 mM after metformin 0.5 mg/g) is reported as “significantly high survival rate”, the “survival rate as compared to vehicle alone” value ([1]; after 24 hours) is reported as “about 1.7 fold” and the “survival rate as compared to vehicle alone” value ([1]; after 48 hours) is reported as “about 2.0 fold”. The “survival rate as compared to vehicle alone” value ([1]; after 72 hours) was “about 2.0 fold”.
In the case of Cc1nc(CC2CCN(c3ccc(-c4ccc(CO)cc4)cc3)CC2)nc(C(=O)NCC(=O)O)c1O [Compound A, ({[5-hydroxy-2-({1-[4′-(hydroxymethyl)biphenyl-4-yl]piperidin-4-yl}methyl)-6-methylpyrimidin-4-yl]carbonyl}amino)acetic acid], the “survival rate as compared to vehicle alone (Kaplan-Meier, FIG. 1)” value (MALA model mice; 30 mg/kg body weight oral, single, metformin 0.25 mg/g x3, lactic acid 0.4 mg/g i.p. after 4 hours) is reported as “significantly high survival rate”, the “survival rate as compared to vehicle alone” value (MALA model mice; after 24 hours) is reported as “about 1.8 fold” and the “survival rate as compared to vehicle alone” value (MALA model mice; after 48 hours) is reported as “about 2.8 fold”. For the same molecule, the “survival rate as compared to vehicle alone” value (MALA model mice; after 72 hours) was “about 2.6 fold”, the “survival rate as compared to vehicle alone” value (MALA model mice; after 96 hours) was “about 2.4 fold” and the “survival rate as compared to vehicle alone” value (MALA model mice; after 120 hours) was “about 2.6 fold”. For the same molecule, the “survival rate as compared to vehicle alone (Kaplan-Meier, FIG. 2)” value ([2]; 10 mg/kg body weight oral, single, mice with blood lactate more than 8 mM after metformin 0.5 mg/g) was “significantly high survival rate”, the “survival rate as compared to vehicle alone” value ([2]; after 24 hours) was “about 2.9 fold” and the “survival rate as compared to vehicle alone” value ([2]; after 48 hours) was “about 5.8 fold”. The “survival rate as compared to vehicle alone” value ([2]; after 72 hours) was “about 5.8 fold”.
